Data published in patent US7169753B2, “Chlorophyll and bacteriochlorophyll esters, their preparation and pharmaceutical compositions comprising them” (Yeda Research and Development Co. Ltd., priority 1999, dated 2007).

System: M2R melanoma cells
Assay: Photodynamic activity in monolayer cell culture (phototoxicity to melanoma cells)
Type: cell-based
Conditions: mouse M2R melanoma cells, 4 hrs dark incubation, irradiation 600–1300 nm; for phototoxicity to M2R melanoma cells (result in words): viability by [3H]-thymidine incorporation, formed aggregates in the liposomes
Description: Liposome Preparation L-α-Dipalmitoylphosphatidylcholine (DPPC) liposomes as carrier system for pigments insoluble in water were prepared according to Toledano, 1998 and to Cuomo et al. 1990. […] (≅130 μg) of the photosensitizer and 5 mg DPPC were dissolved in 400 μl chloroform. Onto this were layered 250 μl H2O and 250 μl phosphate buffer (pH=7,2; 1,5 mM KH2PO4; 7,6 mM Na2HPO4; 0,15 M NaCl). The chloroform was removed within 5 min with a rapid stream of argon, while the mixture was sonicated and maintained at 45° C. Sonication was continued for another 20 min and the liposomes loaded with pigment were recovered in the supernatant after centrifugation (16 000×g, 10 min). The liposome concentration was determined photometrically at 750 nm (according to Grossweiner and Grossweiner, 1982). Photodynamic Activity in Monolayer Cell Culture M2R melanoma cells (mice) were cultivated as monolayers in 96-well microtiter-plates in DMEM (Dulbecco's modified Eagle's medium)/F12 1/1 (v/v) at 37° C. in a moist atmosphere containing 8% CO2. The medium (pH 7.4) was supplemented with HEPES buffer (25 mM), fetal-bovine-serum (FBS) (10%), glutamine (2 mM), penicillin (0.06 mg/ml) and streptomycin (0.1 mg/ml). Within 24 hrs, the cell density increased from 1×10^4 to 2×10^4 cell/100 μl. Increasing amounts of the liposome preparation containing the BChl-derivative were added to the cells. (Pd-BPheid-ser or Pd-BPheid-Nglc were added as ethanolic solution (10^−4 M) such that the maximum concentration of ethanol was <1%). The cells were first kept in the dark for 4 hrs, washed with 100 μl of the medium, treated with 100 μl of fresh medium, and then irradiated from below through the bottom of the plates with a russian BS LS3-PDT lamp, fitted with a filter (600–1300 nm). A light-dose of 10 mW x s x cm^−2 was provided during an irradiation time of […]. After an additional 24 h in the dark at 37° C., cell viability was determined by microscopic inspection (cell size and shape) and via [^3H]-thymidine incorporation into the DNA (Chen et al. 1988). […]

In the case of “13^3-tert-butyl-benzyl-Pd-bacteriopheophorbide-a-17^3-methyl ester [tbb-Pd-Bpheid-me]”, the “LD90 (phototoxicity)” value (viability by [3H]-thymidine incorporation after 24 h, sensitizers in DPPC liposomes (Pd-BPheid-ser as ethanolic solution)) is reported as 1.1 µM.

For “13^3-tert.-butyl-benzyl-Pd-bacteriopheophorbide-a-17^3-tert-butyl-benzyl ester [tbb-Pd-BPheid-tbb]”, the “phototoxicity to M2R melanoma cells (result in words)” value was “ineffective”.

For “Pd-bacteriopheophorbide a-17^3-N-glucosamide [Pd-BPheid-Nglc]”, the “phototoxicity to M2R melanoma cells (result in words)” value was “ineffective”.
